Patent US11702428B2, “Chemical compounds as inhibitors of interleukin-1 activity” (Genentech, Inc., priority 2017, dated 2023)
“Also recorded” adds a separate entry of the source.

Columns and labels:
TNFα [1] = assay: TNFα levels of LPS and nigericin stimulated cells (counter-screen); format: cell-based, human
Experimental: (§1) For ELISA assays cells were seeded into 96-well plates. Post study, supernatants were removed and the levels of mature IL-1β, IL-18 and TNFα (Quantikine ELISA, R&D systems) were measured in cell conditioned media by ELISA according to manufacturer's instructions.
TNFα levels of LPS and nigericin stimulated cells is measured by HTRF assay (Cisbio, Bedford, Mass.). […] Measuring TNFalpha production also serves as a technical counter-screen to eliminate compounds that interfere with the HTRF reagents. Thus compounds that inhibit both IL-1β and TNFα levels are triaged for either being non-selective for inflammasome or interfering with the HTRF readout.

[2] = Human microsomal stability (Eh); format: in vitro ADME; details: hepatic extraction ratio; 0.5 mg/mL microsomal protein, 1 μM, NADPH; liver blood flow 20.7 mL/min/kg
Experimental: The stock solutions of test article and positive control were prepared at a concentration of 10 mM using DMSO as diluents. All stock solutions were then diluted to working concentrations at 0.25 mM with 70% acetonitrile. The cofactor used in this study was NADPH regenerating system, that was composed of 6.5 mM NADP, 16.5 mM G-6-P, 3 U/mL G-6-P D. The quench reagent was consisted of acetonitrile containing tolbutamide and propanolol (serve as internal standard). Incubation mixtures containing 0.5 mg/mL liver microsomal protein and […] test article/positive control in 100 mM potassium phosphate buffer.
The 0-minute samples were prepared by addition of an 80 μL aliquot of each incubation mixture to 300 μL quench reagent to precipitate proteins. The samples were vortexed, and then a 20 μL aliquot of the NADPH regenerating system was added in. The reaction was initiated by addition of 80 μL of the NADPH regenerating system to 320 μL of each incubation mixture. The final incubation conditions achieved in 400 μL are: 0.5 mg/mL microsomal protein, 1 μM test article/positive control, 1.3 mM NADP, 3.3 mM glucose 6 phosphate, 0.6 U/mL glucose 6 phosphate dehydrogenase. The mixtures were incubated in a 37° C. water bath with gentle shaking. A 100 μL aliquot of each mixture was removed at 10, 30, 90 minutes to a clean 96-well plate which contains 300 μL quench reagent to precipitate proteins, and centrifuged (4000×g, 10 min). 80 μL of supernatant are taken into 96-well assay plates pre-added with 160 μL ultrapure water, and then analyzed by LC-MS/MS. Hepatic extraction ratio (Eh) values were calculated from measured in vitro clearance assuming a human liver blood flow of 20.7 mL/min/kg. Eh values of <0.3 are indicative of compounds with favorable metabolic stability.

NLRP3 inflammasome [3] = target: T1, NLRP3 inflammasome (Homo sapiens, UniProt Q96P20); assay: NLRP3 inflammasome activation assay in PBMCs (LPS priming, nigericin), IL-1β by ELISA; format: cell-based; design: Human peripheral blood mononuclear cells (PBMCs); host or cells: primary human PBMCs from healthy donors; details: for IC50: LPS, nigericin, read-out: PBMC IL-1β IC50
T1 sequence (Q96P20 whole entry): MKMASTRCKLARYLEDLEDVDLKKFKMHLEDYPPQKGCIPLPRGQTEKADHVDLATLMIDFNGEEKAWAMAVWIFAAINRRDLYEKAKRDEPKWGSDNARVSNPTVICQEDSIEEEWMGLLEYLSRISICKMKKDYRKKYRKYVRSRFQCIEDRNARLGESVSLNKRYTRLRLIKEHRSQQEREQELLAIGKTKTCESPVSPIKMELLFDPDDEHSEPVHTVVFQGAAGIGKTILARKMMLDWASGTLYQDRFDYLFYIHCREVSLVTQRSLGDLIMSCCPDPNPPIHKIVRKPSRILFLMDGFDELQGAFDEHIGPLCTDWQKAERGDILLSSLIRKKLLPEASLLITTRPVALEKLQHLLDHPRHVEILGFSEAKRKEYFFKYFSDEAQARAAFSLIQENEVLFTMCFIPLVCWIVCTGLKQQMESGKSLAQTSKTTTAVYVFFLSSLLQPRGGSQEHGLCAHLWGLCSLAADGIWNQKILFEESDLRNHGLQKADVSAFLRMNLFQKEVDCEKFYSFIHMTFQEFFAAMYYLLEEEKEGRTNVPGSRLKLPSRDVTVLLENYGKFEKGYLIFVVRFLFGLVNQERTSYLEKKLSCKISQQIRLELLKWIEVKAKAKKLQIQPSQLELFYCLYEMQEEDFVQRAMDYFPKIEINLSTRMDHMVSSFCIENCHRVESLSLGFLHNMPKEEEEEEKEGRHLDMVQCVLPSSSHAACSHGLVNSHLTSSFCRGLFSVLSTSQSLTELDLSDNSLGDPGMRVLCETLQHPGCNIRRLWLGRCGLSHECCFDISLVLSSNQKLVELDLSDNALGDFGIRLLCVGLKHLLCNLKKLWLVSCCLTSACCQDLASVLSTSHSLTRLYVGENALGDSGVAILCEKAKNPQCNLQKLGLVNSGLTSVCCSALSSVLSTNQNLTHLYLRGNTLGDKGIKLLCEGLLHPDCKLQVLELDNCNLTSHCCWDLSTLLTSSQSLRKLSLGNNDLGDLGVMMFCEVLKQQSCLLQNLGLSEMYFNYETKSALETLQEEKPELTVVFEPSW
Experimental: (§2) Some of the following assays were used to determine the inhibitory activity of the compounds on the NLRP3 inflammasome using a common inflammasome activation stimuli-nigericin.
Human peripheral blood mononuclear cells (PBMCs), consisting of lymphocytes (T, B and NK cells), monocytes and dendritic cells, were freshly isolated from human peripheral blood from healthy donors. Cells were obtained through an IRB approved donor program by iXCells Biotechnologies where all the donors were tested for bacterial and viral infections. Cells were purified from peripheral blood using ficoll gradient centrifugation.
(§3) Cells were then stimulated with 10 uM Nigericin (Sigma Aldrich; InvivoGen) for 1.5 h. Plates were centrifuged at 1,500 rpm for 3 minutes to pellet cells and supernatant was transferred into new plates for subsequent experiments.
as §1

[4] = test system: LPS and nigericin stimulated cells; assay: cells; format: cell-based; details: Homo sapiens; LPS and nigericin stimulated cells, CellTiter-Glo; read-out: CTG protective IC50
Experimental: Viability of compound treated cells is measured using CellTiter-Glo® assay (Promega, Madison, Wis.) that measures the ATP content of cells which is proportional to the number of live cells within a well. This is a counter-screen to establish that the reduction of IL-1β levels in LPS and nigericin stimulated and compound treated cells is not due to cytotoxicity, but rather through the inhibition of the inflammasome pathway. Compounds inhibiting NRLP3 inflammasome activation ultimately increase the viability of LPS and nigericin stimulated cells by blocking NLRP3 mediated pyroptosis that would otherwise lead to cell lysis.

NLRP3 inflammasome [5] = target: T1, NLRP3 inflammasome; assay: NLRP3 inflammasome activation assay in Kupffer cells (LPS priming, nigericin), IL-1β/IL-18 by ELISA; format: cell-based; details: KCs; LPS, nigericin; read-out: KC IL-1β IC50
Description: as §2
Human Kupffer cells (KCs), specialized liver macrophages residing in […], were obtained by gradient isolation from liver specimens harvested post-mortem by Samsara Sciences. Cells were obtained through an IRB approved donor program by Samsara Sciences and all donors tested negative for bacterial and viral infections.
as §3, §1

IL-1β = assay: LPS/ATP challenge model in C57BL/6 mice, IL-1β in peritoneal lavage; format: in vivo; details: 3.5 hours post dose
Experimental: (§4) The purpose of this study was to determine the effects of Compounds 1 and 2 treatment on cytokine production after LPS/ATP injection in female C57BL/6 mice.
(§5) On Day −1 mice were weighed and assigned to groups per Table 2 (see below) in a balanced manner to achieve similar average weight across the groups at the start of the study.
(§6) All mice received a single dose of treatment or vehicle, at hour minus 1.
(§7) At hour 0, all mice received 1 μg of lipopolysaccharide, ultra pure (LPS, InvivoGen, San Diego, Calif.) in 0.5 ml PBS, intraperitoneally.
(§8) At hour 2 (two hours after LPS injection), all mice were injected intraperitoneally with 0.5 ml of 80 mM ATP disodium salt (Sigma, pH adjusted to 7.2 before injection).
(§9) At hour 2.5 (30 minutes after ATP injection and 3.5 hours after compound dosing), blood from all mice was collected via retro-orbital bleeding into K2 EDTA tubes and plasma was prepared and stored at […]. Samples were shipped to the customer or vendor of customers choosing within 7 days of completing the study.
(§10) Immediately after the collection of blood, each mouse was euthanized, the peritoneal cavity was lavaged with 3 ml of ice-cold PBS containing 25 U/ml heparin sodium salt, cocktail of protease inhibitors (Complete™ ULTRA Tablets, Sigma, Roche), and 10% FBS. Approximately 1 ml of the lavage was collected, spun down to remove cells and the supernatant stored at −80° C.
(§11) Compound powders were stored at 4° C. All compounds were prepared fresh. Compounds were weighed out and first ground with a mortar and pestle, then ground with a small amount of vehicle. The mortar was then repeatedly rinsed with vehicle to remove all material and achieve the correct concentration. The final solution was vortexed to create a homogeneous mixture
(§12) Mouse IL-1β and TNFα concentrations in peritoneal lavage samples were determined using Becton Dickinson (Franklin Lakes, N.J.) CBA analysis kit, according to manufacturer's protocol. A single analysis was performed on each sample.
(§13) Concentrations of cytokines were compared using Student t-test.

TNFα [6] = assay: LPS/ATP challenge model in C57BL/6 mice, TNFα in peritoneal lavage; format: in vivo; details: 3.5 hours post dose
Experimental: as §4, §5, §6, §7, §8, §9, §10, §11, §12, §13

pro-caspase-1 = assay: Inhibition of Caspase1 activation in bone marrow derived macrophages (Western Blot); format: cell-based, mouse; details: 10 μM; BMDMs, LPS 100 ng/ml 3 hours, nigericin 10 μM 90 minutes

Compound | TNFα IC50 (PBMC or KC) (TNFα [1]) | Human Microsomal Stability (Eh) [2] | IC50 (NLRP3 inflammasome [3]) [nM] | IC50 [4] [nM] | IC50 (NLRP3 inflammasome [5]) [nM] | other results
CO[C@@H]1COc2c(S(=O)(=O)NC(=O)Nc3c4c(cc5c3CCC5)CCC4)cnn2C1 | No Curve | 0.2 | 100 to 1000 | 100 to 1000 | 100 to 1000 | –
O=C(Nc1c2c(cc3c1CCC3)CCC2)NS(=O)(=O)c1cnn2c1OC[C@H](O)C2 | No Curve | <0.1 | < 100 | < 100 | < 100 | –
CCO[C@H]1COc2c(S(=O)(=O)NC(=O)Nc3c4c(cc5c3CCC5)CCC4)cnn2C1 | No Curve | 0.4 | < 100 | < 100 | < 100 | –
CS(=O)(=O)NC(=O)Nc1c2c(cc3c1CCC3)CCC2 [Compound 2, N-((1,2,3,5,6,7-hexahydro-s-indacen-4-yl)carbamoyl)methanesulfonamide] | – | – | – | – | – | Mean (IL-1β) (IL-1β; single oral dose 0.25 mg/kg): 392.7 pg/mL; % Decrease of IL-1β vs. Vehicle (IL-1β; single oral dose 0.25 mg/kg, 0.25 mg/kg): 71.0%; Mean (IL-1β) (IL-1β; single oral dose 1 mg/kg): 12.9 pg/mL; % Decrease of IL-1β vs. Vehicle (IL-1β; single oral dose 1 mg/kg, 1 mg/kg): 99.0%; Mean (IL-1β) (IL-1β; single oral dose 2.5 mg/kg): 10.7 pg/mL; % Decrease of IL-1β vs. Vehicle (IL-1β; single oral dose 2.5 mg/kg, 2.5 mg/kg): 99.2%; % Decrease of TNFα vs. Vehicle (TNFα [6]; single oral dose 0.25 mg/kg): −12.5%; Mean (TNFα) (TNFα [6]; single oral dose 0.25 mg/kg): 384.7 pg/mL; % Decrease of TNFα vs. Vehicle (TNFα [6]; single oral dose 1 mg/kg): −15.5%; Mean (TNFα) (TNFα [6]; single oral dose 1 mg/kg): 394.9 pg/mL; % Decrease of TNFα vs. Vehicle (TNFα [6]; single oral dose 2.5 mg/kg): −218%; Mean (TNFα) (TNFα [6]; single oral dose 2.5 mg/kg): 416.6 pg/mL; activation of pro-caspase-1 (p45 and p10 bands, Western Blot) (pro-caspase-1): blocked; also recorded: inhibition of activation
O=S(=O)(NC(=S)Nc1c2c(cc3c1CCC3)CCC2)c1cnn2c1OCCC2 [Compound 3, N-((1,2,3,5,6,7-hexahydro-s-indacen-4-yl)carbamothioyl)-6,7-dihydro-5H-pyrazolo[5,1-b][1,3]oxazine-3-sulfonamide] | – | – | – | – | – | % Decrease of IL-1β vs. Vehicle (IL-1β; single oral dose 0.25 mg/kg): 53.0%; Mean (IL-1β) (IL-1β; single oral dose 0.25 mg/kg): 781.8 pg/mL; % Decrease of IL-1β vs. Vehicle (IL-1β; single oral dose 1 mg/kg): 96.5%; Mean (IL-1β) (IL-1β; single oral dose 1 mg/kg): 57.7 pg/mL; % Decrease of IL-1β vs. Vehicle (IL-1β; single oral dose 2.5 mg/kg): 99.1%; Mean (IL-1β) (IL-1β; single oral dose 2.5 mg/kg): 14.6 pg/mL; IL-1β production in PBMCs (FIG. 1) (NLRP3 inflammasome [3]): inhibition
O=C(Nc1c2c(cc3c1CCC3)CCC2)NS(=O)(=O)c1cnn2c1CCCC2 [Compound 4, N-((1,2,3,5,6,7-hexahydro-s-indacen-4-yl)carbamoyl)-4,5,6,7-tetrahydropyrazolo[1,5-a]pyridine-3-sulfonamide] | – | – | – | – | – | activation of pro-caspase-1 (p45 and p10 bands, Western Blot) (pro-caspase-1): blocked; also recorded: inhibition of activation
CC1(C)COc2c(S(=O)(=O)NC(=O)Nc3c4c(cc5c3CCC5)CCC4)cnn2C1 [drawing 513] | No Curve | 0.5 | < 100 | < 100 | < 100 | –
O=C(Nc1c2c(cc3c1CCC3)CCC2)NS(=O)(=O)c1cnn2c1OCC(O)C2 (stereo not shown) [drawing 514] | No Curve | 0.1 | < 100 | < 100 | < 100 | –
